# From ChEMBL document CHEMBL5465560, “Selectivity Literature for EUbOPEN Chemogenomic Library” (2024)
# Tests used:
# [1] = target: Epithelial discoidin domain-containing receptor 1 (Homo sapiens) (UniProt Q08345); assay: Selectivity interaction (KinomeScan (DiscoverX)) EUB0000699a DDR1; conditions: at 10 µM
# [2] = target: Homeodomain-interacting protein kinase 2 (Homo sapiens, UniProt Q9H2X6); assay: Selectivity interaction (Upstate Kinase Profiler service (Millipore)) EUB0000056c HIPK2; conditions: at 1 µM
# [3] = target: T1, Protein kinase C iota type (Homo sapiens) (UniProt P41743); assay: Selectivity interaction (KinomeScan (DiscoverX)) EUB0000655a PRKCI; conditions: at 10 µM
# T1 sequence (whole entry): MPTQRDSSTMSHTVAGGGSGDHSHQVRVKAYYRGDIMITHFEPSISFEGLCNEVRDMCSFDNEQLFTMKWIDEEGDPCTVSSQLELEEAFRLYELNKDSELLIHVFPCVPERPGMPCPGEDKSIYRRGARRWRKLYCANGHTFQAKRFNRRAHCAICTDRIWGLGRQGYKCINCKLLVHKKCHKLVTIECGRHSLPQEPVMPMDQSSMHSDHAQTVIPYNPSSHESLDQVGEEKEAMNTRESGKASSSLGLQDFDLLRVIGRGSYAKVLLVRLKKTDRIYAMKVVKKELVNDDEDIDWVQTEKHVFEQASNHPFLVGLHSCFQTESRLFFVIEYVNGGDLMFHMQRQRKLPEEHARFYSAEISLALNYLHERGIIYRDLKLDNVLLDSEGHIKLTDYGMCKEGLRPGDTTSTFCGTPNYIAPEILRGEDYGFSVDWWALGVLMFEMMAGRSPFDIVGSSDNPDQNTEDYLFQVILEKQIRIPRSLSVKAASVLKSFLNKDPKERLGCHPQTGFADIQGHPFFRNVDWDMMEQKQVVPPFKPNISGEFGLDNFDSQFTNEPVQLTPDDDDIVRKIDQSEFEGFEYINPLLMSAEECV
# [4] = target: Serine/threonine-protein kinase MARK2 (Homo sapiens) (UniProt Q7KZI7); assay: Selectivity interaction (KinomeScan (DiscoverX)) EUB0000695a MARK2; conditions: at 100 nM
# [5] = target: T2, Serine/threonine-protein kinase Nek9 (Homo sapiens) (UniProt Q8TD19); assay: Selectivity interaction (KinomeScan (DiscoverX)) EUB0000607a NEK9; conditions: at 10 µM
# T2 sequence (whole entry): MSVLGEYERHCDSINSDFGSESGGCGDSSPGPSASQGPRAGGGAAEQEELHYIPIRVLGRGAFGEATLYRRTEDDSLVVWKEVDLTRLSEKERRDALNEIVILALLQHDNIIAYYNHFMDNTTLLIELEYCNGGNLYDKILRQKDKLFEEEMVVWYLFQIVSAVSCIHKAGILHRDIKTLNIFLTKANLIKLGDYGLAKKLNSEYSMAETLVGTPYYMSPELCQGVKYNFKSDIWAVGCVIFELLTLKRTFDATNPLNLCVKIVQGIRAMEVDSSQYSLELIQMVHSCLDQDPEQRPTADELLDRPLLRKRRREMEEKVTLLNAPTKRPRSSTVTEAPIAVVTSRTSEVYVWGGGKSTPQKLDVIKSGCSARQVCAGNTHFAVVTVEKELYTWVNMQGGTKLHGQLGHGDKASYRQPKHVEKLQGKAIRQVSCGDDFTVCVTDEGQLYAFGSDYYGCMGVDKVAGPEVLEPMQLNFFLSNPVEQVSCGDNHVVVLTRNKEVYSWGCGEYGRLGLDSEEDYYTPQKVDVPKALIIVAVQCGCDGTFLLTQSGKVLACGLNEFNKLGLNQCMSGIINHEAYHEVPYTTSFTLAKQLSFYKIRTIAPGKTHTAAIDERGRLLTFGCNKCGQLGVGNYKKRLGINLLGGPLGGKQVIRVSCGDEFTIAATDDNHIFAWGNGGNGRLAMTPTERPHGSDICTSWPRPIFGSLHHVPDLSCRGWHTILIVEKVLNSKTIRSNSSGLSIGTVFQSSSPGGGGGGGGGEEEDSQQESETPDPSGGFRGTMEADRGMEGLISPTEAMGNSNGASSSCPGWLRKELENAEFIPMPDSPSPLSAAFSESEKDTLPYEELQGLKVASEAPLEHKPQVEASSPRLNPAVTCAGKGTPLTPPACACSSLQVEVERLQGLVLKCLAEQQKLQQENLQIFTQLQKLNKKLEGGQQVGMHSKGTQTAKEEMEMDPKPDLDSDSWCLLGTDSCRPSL
# [6] = target: Serine/threonine-protein kinase pim-2 (Homo sapiens, UniProt Q9P1W9); assay: Selectivity interaction (KinomeScan (DiscoverX)) EUB0000607a PIM2; conditions: at 10 µM
# [7] = target: Mitogen-activated protein kinase 7 (Homo sapiens) (UniProt Q13164); assay: Selectivity interaction (ProQinase) EUB0000171b MAPK7
# [8] = target: T3, Serine/threonine-protein kinase TBK1 (Homo sapiens) (UniProt Q9UHD2); assay: Selectivity interaction (ProQinase) EUB0000171b TBK1
# T3 sequence (whole entry): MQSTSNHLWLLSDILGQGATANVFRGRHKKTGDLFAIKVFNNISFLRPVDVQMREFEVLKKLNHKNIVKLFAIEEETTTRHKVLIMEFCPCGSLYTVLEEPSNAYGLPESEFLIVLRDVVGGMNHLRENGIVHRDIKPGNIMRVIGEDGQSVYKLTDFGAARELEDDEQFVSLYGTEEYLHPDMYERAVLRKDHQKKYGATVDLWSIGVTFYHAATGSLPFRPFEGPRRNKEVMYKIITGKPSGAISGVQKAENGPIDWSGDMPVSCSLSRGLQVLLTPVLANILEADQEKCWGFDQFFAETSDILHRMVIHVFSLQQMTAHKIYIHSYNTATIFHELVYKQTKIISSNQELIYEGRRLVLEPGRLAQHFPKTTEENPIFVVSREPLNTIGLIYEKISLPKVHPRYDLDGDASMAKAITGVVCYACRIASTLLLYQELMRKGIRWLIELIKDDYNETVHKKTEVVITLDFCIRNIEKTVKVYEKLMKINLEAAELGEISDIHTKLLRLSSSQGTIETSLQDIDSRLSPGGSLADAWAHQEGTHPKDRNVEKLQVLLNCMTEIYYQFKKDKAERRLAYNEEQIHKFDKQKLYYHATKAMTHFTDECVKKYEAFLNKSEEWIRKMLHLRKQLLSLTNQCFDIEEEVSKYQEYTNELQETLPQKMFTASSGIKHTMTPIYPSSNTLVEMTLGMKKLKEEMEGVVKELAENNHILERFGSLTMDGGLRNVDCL
# Mitogen-activated protein kinase 7 (Homo sapiens), sequence (Q13164 2-816 limits assumed): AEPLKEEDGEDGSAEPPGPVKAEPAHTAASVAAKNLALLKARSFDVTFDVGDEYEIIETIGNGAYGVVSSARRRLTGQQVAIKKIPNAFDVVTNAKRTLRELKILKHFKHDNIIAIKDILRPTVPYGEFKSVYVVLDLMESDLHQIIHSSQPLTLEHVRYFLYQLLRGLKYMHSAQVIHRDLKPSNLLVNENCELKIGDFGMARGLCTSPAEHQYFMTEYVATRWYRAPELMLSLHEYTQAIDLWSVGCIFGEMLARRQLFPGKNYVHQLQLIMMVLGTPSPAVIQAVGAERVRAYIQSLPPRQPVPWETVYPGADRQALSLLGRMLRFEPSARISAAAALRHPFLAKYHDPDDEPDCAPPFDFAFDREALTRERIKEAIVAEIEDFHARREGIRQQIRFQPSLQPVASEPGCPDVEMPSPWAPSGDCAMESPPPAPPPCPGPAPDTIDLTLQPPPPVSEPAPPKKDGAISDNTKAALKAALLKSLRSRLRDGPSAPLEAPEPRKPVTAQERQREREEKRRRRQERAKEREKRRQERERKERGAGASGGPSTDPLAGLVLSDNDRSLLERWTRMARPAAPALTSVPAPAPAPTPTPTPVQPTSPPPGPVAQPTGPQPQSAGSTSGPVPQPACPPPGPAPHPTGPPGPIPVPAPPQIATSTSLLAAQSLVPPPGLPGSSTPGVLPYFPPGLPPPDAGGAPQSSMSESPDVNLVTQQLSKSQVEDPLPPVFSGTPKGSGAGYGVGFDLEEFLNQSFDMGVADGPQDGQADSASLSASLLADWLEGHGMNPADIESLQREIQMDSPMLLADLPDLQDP
# Serine/threonine-protein kinase MARK2 (Homo sapiens), sequence (Q7KZI7 whole entry): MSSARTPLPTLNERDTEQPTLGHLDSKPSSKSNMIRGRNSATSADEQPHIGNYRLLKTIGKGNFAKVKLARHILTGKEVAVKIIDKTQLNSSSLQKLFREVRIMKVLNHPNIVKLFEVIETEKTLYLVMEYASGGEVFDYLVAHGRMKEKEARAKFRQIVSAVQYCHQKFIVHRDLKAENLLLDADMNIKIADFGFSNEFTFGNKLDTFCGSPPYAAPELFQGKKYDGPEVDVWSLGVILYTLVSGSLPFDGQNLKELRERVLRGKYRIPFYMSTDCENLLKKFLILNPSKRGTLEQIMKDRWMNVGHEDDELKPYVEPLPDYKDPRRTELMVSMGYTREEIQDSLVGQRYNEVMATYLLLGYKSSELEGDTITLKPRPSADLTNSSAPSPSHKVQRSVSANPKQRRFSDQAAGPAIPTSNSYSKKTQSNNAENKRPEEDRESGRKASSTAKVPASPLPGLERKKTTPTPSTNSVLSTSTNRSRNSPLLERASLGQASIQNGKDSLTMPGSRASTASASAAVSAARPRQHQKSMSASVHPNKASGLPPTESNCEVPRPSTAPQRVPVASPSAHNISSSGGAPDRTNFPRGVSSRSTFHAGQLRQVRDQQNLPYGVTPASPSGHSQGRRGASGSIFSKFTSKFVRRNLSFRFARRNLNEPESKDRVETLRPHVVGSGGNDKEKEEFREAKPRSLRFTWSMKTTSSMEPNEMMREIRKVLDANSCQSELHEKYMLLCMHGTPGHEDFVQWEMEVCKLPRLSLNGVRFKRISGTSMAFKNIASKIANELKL
# Epithelial discoidin domain-containing receptor 1 (Homo sapiens), sequence (Q08345 whole entry, the tested form may be a part): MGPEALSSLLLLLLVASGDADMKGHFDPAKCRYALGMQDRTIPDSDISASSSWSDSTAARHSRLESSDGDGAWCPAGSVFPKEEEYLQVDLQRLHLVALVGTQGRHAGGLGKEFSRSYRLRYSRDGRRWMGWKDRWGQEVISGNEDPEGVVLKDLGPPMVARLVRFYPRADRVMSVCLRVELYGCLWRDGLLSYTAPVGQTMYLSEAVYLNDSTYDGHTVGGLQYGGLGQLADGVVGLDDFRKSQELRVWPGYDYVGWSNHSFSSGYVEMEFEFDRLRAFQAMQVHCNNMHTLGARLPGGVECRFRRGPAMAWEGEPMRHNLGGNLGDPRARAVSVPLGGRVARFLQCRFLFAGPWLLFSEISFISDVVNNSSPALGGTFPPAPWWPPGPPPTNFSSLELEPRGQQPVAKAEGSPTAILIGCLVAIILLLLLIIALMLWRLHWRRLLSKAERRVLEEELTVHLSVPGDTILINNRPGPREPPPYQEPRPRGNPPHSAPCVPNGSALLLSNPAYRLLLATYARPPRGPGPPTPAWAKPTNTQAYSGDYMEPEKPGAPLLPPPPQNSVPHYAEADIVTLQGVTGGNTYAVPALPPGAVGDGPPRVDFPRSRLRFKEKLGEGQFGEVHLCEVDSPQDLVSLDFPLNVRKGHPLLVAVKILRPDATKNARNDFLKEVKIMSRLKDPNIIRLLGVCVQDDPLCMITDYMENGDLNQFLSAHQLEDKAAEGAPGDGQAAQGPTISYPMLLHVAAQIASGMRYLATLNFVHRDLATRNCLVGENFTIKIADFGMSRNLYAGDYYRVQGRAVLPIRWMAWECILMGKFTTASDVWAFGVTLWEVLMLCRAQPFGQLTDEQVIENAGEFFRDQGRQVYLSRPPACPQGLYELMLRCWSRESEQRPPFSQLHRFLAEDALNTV
# Serine/threonine-protein kinase pim-2, sequence (Q9P1W9 whole entry, looked up): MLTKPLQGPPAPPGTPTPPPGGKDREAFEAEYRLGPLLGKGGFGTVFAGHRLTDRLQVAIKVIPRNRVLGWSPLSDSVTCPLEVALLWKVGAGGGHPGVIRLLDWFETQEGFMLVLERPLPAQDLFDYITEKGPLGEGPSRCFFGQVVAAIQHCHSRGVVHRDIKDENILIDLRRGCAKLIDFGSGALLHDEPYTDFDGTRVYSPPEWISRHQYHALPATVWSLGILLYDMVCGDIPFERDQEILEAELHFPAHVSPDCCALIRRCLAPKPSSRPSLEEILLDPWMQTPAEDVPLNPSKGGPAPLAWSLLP
# Homeodomain-interacting protein kinase 2, sequence (Q9H2X6 whole entry, looked up): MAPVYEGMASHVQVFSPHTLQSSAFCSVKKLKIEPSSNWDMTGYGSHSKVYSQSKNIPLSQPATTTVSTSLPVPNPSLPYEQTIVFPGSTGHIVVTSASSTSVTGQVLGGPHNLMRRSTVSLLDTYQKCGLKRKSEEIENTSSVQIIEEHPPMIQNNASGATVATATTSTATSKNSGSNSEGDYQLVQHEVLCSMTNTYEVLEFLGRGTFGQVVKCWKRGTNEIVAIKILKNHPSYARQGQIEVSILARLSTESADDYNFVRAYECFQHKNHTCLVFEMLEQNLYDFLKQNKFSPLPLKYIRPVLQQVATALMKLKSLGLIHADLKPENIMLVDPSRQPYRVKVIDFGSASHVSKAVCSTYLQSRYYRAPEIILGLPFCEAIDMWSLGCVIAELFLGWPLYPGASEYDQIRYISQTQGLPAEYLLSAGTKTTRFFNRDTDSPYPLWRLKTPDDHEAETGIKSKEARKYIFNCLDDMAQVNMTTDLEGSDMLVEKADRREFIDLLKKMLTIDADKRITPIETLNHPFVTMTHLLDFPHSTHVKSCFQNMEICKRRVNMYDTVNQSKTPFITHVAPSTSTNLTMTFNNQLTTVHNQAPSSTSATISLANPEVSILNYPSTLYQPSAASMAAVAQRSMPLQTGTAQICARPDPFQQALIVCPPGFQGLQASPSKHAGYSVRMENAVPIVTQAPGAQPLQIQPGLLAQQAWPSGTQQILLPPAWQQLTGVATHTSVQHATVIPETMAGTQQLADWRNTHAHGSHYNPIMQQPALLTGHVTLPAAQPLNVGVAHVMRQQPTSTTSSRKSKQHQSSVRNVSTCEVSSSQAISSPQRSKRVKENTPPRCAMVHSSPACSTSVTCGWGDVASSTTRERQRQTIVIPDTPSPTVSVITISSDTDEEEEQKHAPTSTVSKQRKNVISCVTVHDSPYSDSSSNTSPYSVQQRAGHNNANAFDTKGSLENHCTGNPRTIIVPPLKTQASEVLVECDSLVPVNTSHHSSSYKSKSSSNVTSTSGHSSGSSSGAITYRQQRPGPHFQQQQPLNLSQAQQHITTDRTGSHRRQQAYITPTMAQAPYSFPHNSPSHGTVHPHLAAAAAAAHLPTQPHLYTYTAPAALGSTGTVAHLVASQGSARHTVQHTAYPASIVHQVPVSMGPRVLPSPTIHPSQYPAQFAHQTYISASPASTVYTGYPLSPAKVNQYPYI
structure (smiles),measurement,setting,value
CCN(CC)CCCCNc1ncc2cc(-c3cc(OC)cc(OC)c3)c(NC(=O)NC(C)(C)C)nc2n1,% of control,[1],1.1%
Cc1ccc(-c2ccc3c(ccc4sc5c(c43)NC[C@@H](C)NC5=O)n2)cn1,% of inhibition,[2],2%
CN(C)CCOc1ccc(-c2nc(-c3ccncc3)c(-c3ccc4c(c3)CC/C4=N\O)[nH]2)cc1,% of control,[3],80%
Cc1cc(F)c(C(=O)Nc2cccc(-c3nncn3C(C)C)n2)cc1-n1cnc(C2CC2)c1,% of control,[4],100%
CNC(=O)Nc1ccc(-c2nc(N3CC4CCC(C3)O4)c3cnn(C4CCC5(CC4)OCCO5)c3n2)cc1,% of control,[5],100%
same,% of control,[6],74%
C=CC(=O)Nc1cccc(C(=O)Nc2ccc(Nc3cc(-c4[nH]c(SC)nc4C)ccn3)cc2)c1,% of control,[7]; at 1 µM,83%
same,% of control,[7]; at 5 µM,73%
same,% of control,[8]; at 1 µM,84%
same,% of control,[8]; at 5 µM,69%
